This assay has as its target T1, KSP (HuEg5) (Homo sapiens, UniProt P52732).
T1 construct: I.D. No. 1 corresponds to residues 1-359 with the C-terminal 6-histidine tag; 6-histidine tag (C); made in house; host or cells: E. coli Tuner (DE3)
T1 sequence (P52732 with tags, fused parts or gaps): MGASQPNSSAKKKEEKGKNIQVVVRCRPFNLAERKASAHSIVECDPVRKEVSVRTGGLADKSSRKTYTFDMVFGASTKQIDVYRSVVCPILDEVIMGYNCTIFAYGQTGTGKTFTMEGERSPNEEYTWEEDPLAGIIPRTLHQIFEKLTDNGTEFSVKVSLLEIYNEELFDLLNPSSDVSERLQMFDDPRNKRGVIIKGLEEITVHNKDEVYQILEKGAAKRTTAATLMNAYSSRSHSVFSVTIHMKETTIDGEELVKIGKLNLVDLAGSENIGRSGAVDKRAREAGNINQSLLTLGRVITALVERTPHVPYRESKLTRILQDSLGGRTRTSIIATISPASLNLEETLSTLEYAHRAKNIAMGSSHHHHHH
Kind of assay: in vitro enzymatic KSP (HuEg5) ATPase activity assay. Format: biochemical. The note with it: reference compounds; coupled PK/LDH ATPase assay, 25 μM ATP, 12 nM enzyme, 60 minutes at room temperature. The source says:
The activity of compounds as KSP (HuEg5) inhibitors may be assayed in vitro, in vivo, or in a cell line. Further, compounds according to the present invention may be screened for activity against one or more kinesins. Provided below is the in vitro enzymatic KSP (HuEg5) ATPase activity assay for activity against KSP (HuEg5).
KSP (Eg5) DNA encoding residues 1-359 of the Kinesin motor domain sequence of the human enzyme may be amplified by PCR and cloned into the NcoI site of pET15b (Novagen), which incorporates a 6-histidine tag at the C-terminus. SEQ. I.D. No. 1 corresponds to residues 1-359 with the C-terminal 6-histidine tag and SEQ. I.D. No. 2 is the DNA sequence that was used to encode SEQ. […]
Recombinant protein may be isolated from cellular extracts by passage over ProBond resin (Invitrogen), and dialysis against buffer containing 25 mM Tris pH 7.6, 50 mM NaCl, 0.25 mM TCEP. The purity of KSP (Eg5) proteins may be determined on denaturing SDS-PAGE gel. […]
The inhibitory properties of compounds relative to KSP may be determined using a clear 384-well plate format under the following reaction conditions: 20 mM K-PIPES pH 6.8, 2 mM MgCl2, 1 mM EGTA, 1.5 mM KCl, 1 mM DTT, 0.01% Brij35, 25 μM ATP, 1 mM phosphoenolpyruvate (PEP), 0.4 mM NADH, 25 nM microtubules (MT), 1 μM Taxol, 30 units/ml rabbit muscle pyruvate kinase (PK), 30 units/ml rabbit muscle lactic dehydrogenase (LDH), and 2% DMSO. […]

Regarding `CCCCN1C(=O)C2Cc3c([nH]c4ccccc34)C(c3cccc(O)c3)N2C1=O` (centres unmarked) [HR22C16], the IC50 came to 1.5 µM.

As for `CCOC(=O)C1=C(C)NC(=S)NC1c1cccc(O)c1` (centres unmarked) [Monastrol], the IC50 was 45 µM. Against the preceding molecule, the IC50 is about 30-fold higher.
